Structures can show the parent of a compound that is named as a salt.
Test system: SARS-CoV-2
Assay: microbe, parasite or virus in culture
Settings: Severe acute respiratory syndrome coronavirus 2, Vero C1008, 48 h

Row | Compound | IC50 [µM] | IC50 (read-out: pIC50 (converted)) [µM]
1 | CCN(CC)C(=O)c1cccc(C)c1 [DIETHYLTOLUAMIDE] | > 20 | > 20
2 | OCCN1CCCCC1C(c1ccccc1)c1ccccc1 (stereo unspecified) [DIFEMETOREX] | > 20 | > 20
3 | N#CC(CCN1CCC(C(=O)O)(c2ccccc2)CC1)(c1ccccc1)c1ccccc1 [DIFENOXIN] | > 20 | > 20
4 | O=C(Cc1ccc(-c2ccccc2)cc1)Nc1ccccn1 [DIFENPIRAMIDE] | > 20 | > 20
5 | CC(=O)OCC(=O)[C@@]1(OC(C)=O)[C@@H](C)C[C@H]2[C@@H]3C[C@H](F)C4=CC(=O)C=C[C@]4(C)[C@@]3(F)[C@@H](O)C[C@@]21C [DIFLORASONE DIACETATE] | > 20 | > 20
6 | CN1CCN(c2cc3c(cc2F)c(=O)c(C(=O)O)cn3-c2ccc(F)cc2)CC1 [DIFLOXACIN] | > 20 | > 20
7 | CCCC(=O)O[C@]1(C(=O)COC(C)=O)CC[C@H]2[C@@H]3C[C@H](F)C4=CC(=O)C=C[C@]4(C)[C@@]3(F)[C@@H](O)C[C@@]21C [DIFLUPREDNATE] | > 20 | > 20
8 | O=C1c2ccccc2CN2C(=O)c3ccccc3CN12 [DIFTALONE] | > 20 | > 20
9 | C[C@H]1O[C@@H](O[C@H]2[C@@H](O)C[C@H](O[C@H]3[C@@H](O)C[C@H](O[C@H]4CC[C@@]5(C)[C@H](CC[C@@H]6[C@@H]5CC[C@]5(C)[C@@H](C7=CC(=O)OC7)CC[C@]65O)C4)O[C@@H]3C)O[C@@H]2C)C[C@H](O)[C@@H]1O [DIGITOXIN] | > 20 | > 20
10 | C[C@H]1O[C@@H](O[C@H]2[C@@H](O)C[C@H](O[C@H]3[C@@H](O)C[C@H](O[C@H]4CC[C@@]5(C)[C@H](CC[C@@H]6[C@@H]5C[C@@H](O)[C@]5(C)[C@@H](C7=CC(=O)OC7)CC[C@]65O)C4)O[C@@H]3C)O[C@@H]2C)C[C@H](O)[C@@H]1O [DIGOXIN] | > 20 | > 20
11 | N/N=c1\[nH][nH]/c(=N\N)c2ccccc12 [DIHYDRALAZINE] | > 20 | > 20
12 | CC(C)[C@@]1(NC(=O)[C@@H]2C[C@@H]3c4cccc5[nH]cc(c45)C[C@H]3N(C)C2)O[C@@]2(O)[C@@H]3CCCN3C(=O)[C@H](Cc3ccccc3)N2C1=O [DIHYDROERGOCRISTINE] | > 20 | > 20
13 | CN1C[C@H](C(=O)N[C@]2(C)O[C@@]3(O)[C@@H]4CCCN4C(=O)[C@H](Cc4ccccc4)N3C2=O)C[C@@H]2c3cccc4[nH]cc(c34)C[C@H]21 [DIHYDROERGOTAMINE] | > 20 | > 20
14 | COc1cc2c(cc1OC)[C@@H]1C(=O)c3ccc4c(c3O[C@@H]1CO2)CC(C(C)C)O4 (stereo partly specified) [DIHYDROROTENONE] | > 20 | > 20
15 | CCCCCCCCCCCCCCC[C@@H](O)[C@@H](N)CO [DIHYDROSPINGOSINE] | > 20 | > 20
16 | O=C(CO)CO [DIHYDROXYACETONE] | > 20 | > 20
17 | CC(C)N(CCC(c1ccccc1)c1ccccc1)C(C)C [DIISOPROMINE] | > 20 | > 20
18 | C[C@H](CCc1ccccc1)NC[C@H](O)c1ccc(O)c(C(N)=O)c1 [DILEVALOL] | > 20 | > 20
19 | CN(C(=O)C(Cl)Cl)c1ccc(OC(=O)c2ccco2)cc1 [DILOXANIDE FUROATE] | > 20 | > 20
20 | COc1ccc([C@@H]2Sc3ccccc3N(CCN(C)C)C(=O)[C@@H]2OC(C)=O)cc1 [DILTIAZEM] | > 20 | > 20
21 | CN(C)CCOC(c1ccccc1)c1ccccc1.Cn1c(=O)c2[nH]c(Cl)nc2n(C)c1=O [DIMENHYDRINATE] | > 20 | > 20
22 | CCOC(C(=O)OCCN(C)C)(c1ccccc1)c1ccccc1 [DIMENOXADOL] | > 20 | > 20
23 | CCC(O)C(CC(C)N(C)C)(c1ccccc1)c1ccccc1 (stereo unspecified) [DIMEPHEPTANOL] | > 20 | > 20

Row | Compound | IC50 [µM] | IC50 (read-out: pIC50 (converted)) [µM]
24 | CC1(C)OC(=O)NC1=O [DIMETHADIONE] | > 20 | > 20
25 | CCCCc1cc2ccccc2c(OCCN(C)C)n1 [DIMETHISOQUIN] | > 20 | > 20
26 | COC(=O)/C=C/C(=O)OC [DIMETHYL FUMARATE] | > 20 | > 20
27 | CN(C)CCO [DIMETHYLAMINOETHANOL] | > 20 | > 20
28 | CCc1cnn2c(NCc3ccc[n+]([O-])c3)cc(N3CCCC[C@H]3CCO)nc12 [DINACICLIB] | > 20 | > 20
29 | Cc1c(C(N)=O)cc([N+](=O)[O-])cc1[N+](=O)[O-] [DINITOLMIDE] | > 20 | > 20
30 | CCCCC[C@H](O)/C=C/[C@H]1[C@H](O)CC(=O)[C@@H]1C/C=C\CCCC(=O)O [DINOPROSTONE] | > 20 | > 20
31 | CCCCC[C@H](O)/C=C/[C@@H]1[C@@H](C/C=C\CCCC(=O)O)[C@@H](O)C[C@H]1O [DINOPROST] | > 20 | > 20
32 | COc1ccc(-c2cc(=O)c3c(O)cc(O)cc3o2)cc1O [DIOSMETIN] | > 20 | > 20
33 | c1ccc(C2(c3ccccc3)OCC(C3CCCCN3)O2)cc1 (stereo unspecified) [DIOXADROL] | > 20 | > 20
34 | CCCCCCCCCC1(C)OCC(COC(N)=O)O1 (stereo unspecified) [DIOXAMATE] | > 20 | > 20
35 | CCOC(=O)C(CCN1CCOCC1)(c1ccccc1)c1ccccc1 [DIOXAPHETYL BUTYRATE] | > 20 | > 20
36 | COc1ccc(C(=O)c2ccccc2O)c(O)c1 [DIOXYBENZONE] | > 20 | > 20
37 | O=c1c(-c2ccccc2)c1-c1ccccc1 [DIPHENCYPRONE] | > 20 | > 20
38 | OC(CCCN1CCCCC1)(c1ccccc1)c1ccccc1 [DIPHENIDOL] | > 20 | > 20
39 | CCOC(=O)C1(c2ccccc2)CCN(CCC(C#N)(c2ccccc2)c2ccccc2)CC1 [DIPHENOXYLATE] | > 20 | > 20
40 | CNCC(O)c1ccc(OC(=O)C(C)(C)C)c(OC(=O)C(C)(C)C)c1 (stereo unspecified) [DIPIVEFRIN] | > 20 | > 20
41 | CC(=O)Oc1ccccc1C(=O)Oc1ccccc1C(=O)O [DIPLOSALSALATE] | > 20 | > 20
42 | CCOc1ccc(CC2=NCCc3cc(OC(C)C)c(OC(C)C)cc32)cc1OCC [DIPROTEVERINE] | > 20 | > 20
43 | OCCN(CCO)c1nc(N2CCCCC2)c2nc(N(CCO)CCO)nc(N3CCCCC3)c2n1 [DIPYRIDAMOLE] | > 20 | > 20
44 | CC[C@H]1OC(=O)[C@H](C)[C@@H](O[C@H]2C[C@@](C)(OC)[C@@H](O)[C@H](C)O2)[C@H](C)[C@@H](O[C@@H]2O[C@H](C)C[C@H](N(C)C)[C@H]2O)[C@](C)(O)C[C@@H](C)[C@@H]2N[C@@H](COCCOC)O[C@H]([C@H]2C)[C@]1(C)O [DIRITHROMYCIN] | > 20 | > 20
45 | COC(=O)/C=C/C(=O)OCCN1C(=O)CCC1=O [DIROXIMEL FUMARATE] | > 20 | > 20
46 | CC(C)N(CCC(CCN1CCCCC1)(C(N)=O)c1ccccc1Cl)C(C)C (stereo unspecified) [DISOBUTAMIDE] | > 20 | > 20

Row | Compound | IC50 [µM] | IC50 (read-out: pIC50 (converted)) [µM]
47 | C[C@@H]1CC[C@@]2(OC1)O[C@H]1C[C@H]3[C@@H]4CC=C5C[C@@H](O)CC[C@]5(C)[C@H]4CC[C@]3(C)[C@H]1[C@@H]2C [DISOGENIN] | > 20 | > 20
48 | CC(C)N(CCC(C(N)=O)(c1ccccc1)c1ccccn1)C(C)C (stereo unspecified) [DISOPYRAMIDE] | > 20 | > 20
49 | Cc1cc(CCCCCCCOc2ccc(C3=NCCO3)cc2)on1 [DISOXARIL] | > 20 | > 20
50 | OCCN(CCO)c1nc(-c2ccccc2)c(-c2ccccc2)o1 [DITAZOLE] | > 20 | > 20
51 | CCN1/C(=C/C=C/C=C/c2sc3ccccc3[n+]2CC)Sc2ccccc21 [DITHIAZANINE IODIDE] | > 20 | > 20
52 | CCN1C(=CC=CC=Cc2sc3ccccc3[n+]2CC)Sc2ccccc21 [DITHIAZANINE] | > 20 | > 20
53 | CCN(CC)C(=S)S [DITIOCARB] | > 20 | > 20
54 | CC(CN1CCN(CCOCCO)CC1)CN1c2ccccc2Sc2ccccc21 (stereo unspecified) [DIXYRAZINE] | > 20 | > 20
55 | C[C@]12N[C@H](Cc3ccccc31)c1ccccc12 [DIZOCILPINE] | > 20 | > 20
56 | c1cncc(C2CCCCN2)c1 (stereo not drawn) [DL-ANABASINE] | > 20 | > 20
57 | CC(CCc1ccc(O)cc1)NCCc1ccc(O)c(O)c1 (stereo unspecified) [DOBUTAMINE] | > 20 | > 20
58 | CC1=C(C)C(=O)C(CCCCC#CCCCC#CCO)=C(C)C1=O [DOCEBENONE] | > 20 | > 20
59 | CC/C=C\C/C=C\C/C=C\C/C=C\C/C=C\C/C=C\CCC(=O)O [DOCONEXENT] | > 20 | > 20
60 | CCCCCCCCCCCC(=O)O [DODECANOATE] | > 20 | > 20
61 | CN(CCOc1ccc(NS(C)(=O)=O)cc1)CCc1ccc(NS(C)(=O)=O)cc1 [DOFETILIDE] | > 20 | > 20
62 | C[C@@H]1CCO[C@H]2Cn3cc(C(=O)NCc4ccc(F)cc4F)c(=O)c(O)c3C(=O)N12 [DOLUTEGRAVIR] | > 20 | > 20
63 | CCCCCCCCCCCC[N+](C)(C)CCOc1ccccc1 [DOMIPHEN] | > 20 | > 20
64 | O=c1[nH]c2ccccc2n1CCCN1CCC(n2c(=O)[nH]c3cc(Cl)ccc32)CC1 [DOMPERIDONE] | > 20 | > 20
65 | COc1cc(CC(C)N)c(OC)cc1C (stereo unspecified) [DOM] | > 20 | > 20
66 | COc1cc2c(cc1OC)C(=O)C(CC1CCN(Cc3ccccc3)CC1)C2 (stereo unspecified) [DONEPEZIL] | > 20 | > 20
67 | O=C(NCCc1ccc(O)c(O)c1)C12CC3CC(CC(C3)C1)C2 [DOPAMANTINE] | > 20 | > 20
68 | NCCc1ccc(O)c(O)c1 [DOPAMINE] | > 20 | > 20
